Values quoted from earlier work, collected in US10149828B2, “Oxybutynin transdermal therapeutic system combination” (priority 2015, dated 2018).

What was measured:
[1] = [14C] oxybutynin, transdermal, rats
[2] = administered orally to mice
[3] = compared to placebo over six months; pivotal clinical trials
[4] = open-label, titrated to 6 mg twice daily, 26 weeks

| Compound | radiolabel in the brain [1] | crossing of the Blood-Brain-Barrier [2] | improvement on the 30-point Mini-Mental Status Examination (MMSE) [3] | improvement on the 70-point cognitive subscale of the Alzheimer's Disease Assessment Scale (ADAS-Cog) [3] [point] | cognitive functions in PD patients with dementia [4] | motor function in PD patients with dementia [4] |
| --- | --- | --- | --- | --- | --- | --- |
| CCN(CC)CC#CCOC(=O)C(O)(c1ccccc1)C1CCCCC1 (stereo not drawn) [oxybutynin, 4-diethylaminobut-2-ynyl 2-cyclohexyl-2-hydroxy-2-phenylethanoate] | presence of radiolabel in the brain | has been shown to cross the Blood-Brain-Barrier |  |  |  |  |
| CCN(C)C(=O)Oc1cccc([C@H](C)N(C)C)c1 [rivastigmine, (S)-N-Ethyl-N-methyl-3-[1-(dimethylamino)ethyl]-phenyl carbamate] |  |  | 1-1.5 point | ~2.8 | may improve | no worsening |
